Source: patent US6716829B2, “Aldosterone antagonist and cyclooxygenase-2 inhibitor combination therapy to prevent or treat inflammation-related cardiovascular disorders” (Pharmacia Corporation, priority 2000, dated 2004)
Where “and” joins values, the source holds several entries; their conditions need not be identical. Identical values can stand only once. Entries after “also recorded” stand apart in the source; their conditions may differ.

Legend:
COX-2 = test: Assay B: COX-2 mRNA in heart by quantitative RT-PCR (Taqman); format: in vivo, Male Sprague Dawley rats
Protocol: (§1) Assay B: In Vivo Aldosterone Infusion Model Male Sprague Dawley rats (n=39; BW=250 g) 2. Aldosterone ([…], sc via alzet minipump) 2. […] Hearts were harvested and divided by half through a transverse section at the mid-ventricles: The upper half was stored into formalin. The bottom part was snap-frozen in liquid nitrogen for biochemical analysis. Determination of osteopontin and COX-2 was performed by quantitative RT-PCR (Taqman). Osteopontin was also identified in the heart by immunohistochemistry.

[1] = tested on: Atrial natriuretic factor (ANP); test: Assay C: ANP mRNA in left ventricle by TaqMan RT-PCR; format: in vivo, Male Sprague-Dawley rats; conditions: for ANP mRNA: arbitrary units relative to cyclophilin expression; for ANP mRNA (AU): mean ± SEM after 30 days of treatment, eplerenone dose 100 mg/kg/day, relative to cyclophilin expression
Protocol: The procedure of Assay B was expanded upon in a further study. […] Myocardial tissue from animals in each treatment group was examined after 7, 14, or 30 days of treatment.
Potassium chloride supplementation was added to the saline solution in order to prevent the potential hypokalemia associated with aldosterone excess.
At the time of the surgery, an Alzet 2002 osmotic minipump (Alza Corp., Palo Alto, Calif.) containing either vehicle (9% ethanol/87% propylene glycol/4% dH2O) or 1.0 mg/mL d-aldosterone (Sigma Chemical, St. Louis, Mo.) was inserted subcutaneously at the nape of the neck. Aldosterone was administered at a dose of 0.75 µg/hour. […] Animals were sacrificed from each group (n=8-13) after 7, 14, or 30 days of treatment.
Following exsanguination, hearts and kidneys were isolated, removed, rinsed in cold phosphate-buffered saline, and blotted dry. Kidneys were immediately bifurcated through the long axis with a razor blade and placed in 10% neutral buffered formalin (NBF, Richard-Allen Scientific, Kalamazoo, Mich.). For the hearts, the right ventricle (RV) was cut away from the left ventricle (LV), both ventricles were weighed using a Mettler AE163 balance (Mettler-Toledo, Inc., Hightstown, N.J.), and the RV was placed in 10% NBF. A 2 mm coronal slab of the LV apex was removed and frozen with dry ice/isopentane for analysis of gene expression and the remaining portion of the LV was placed in 10% NBF for fixation. Final wet trimming was completed after 3-4 days fixation where a second 2 mm coronal slab was removed for hydroxyproline analysis and a third 2 mm slab was removed from the equatorial region for histology.
The fluorogenic 5′-nuclease assay (TaqMan PCR) using Applied Biosystems' 7700 Sequence Detection System (Applied Biosystems, Foster City, Calif.) allowed for real time detection/quantitation of a specific gene by monitoring the increase in fluorescence of a gene-specific, dye-labeled oligonucleotide probe. Probes for target and reference genes were labeled at the 5′-end with a 6-carboxyfluorescein (6FAM) reporter dye and at the 3′-end with a 6-carboxy-N,N,N′,N′-tetramethylrhodamine (TAMRA) quencher dye. When the probe was annealed to the target gene, fluorescence of 6FAM was prevented by the close proximity of TAMRA. The exonuclease activity of Taq polymerase released the dyes from the oligonucleotide probe by displacing the probe from the target sequence resulting in fluorescence excitation in direct proportion to the amount of target message present. Data analysis was performed using the Sequence Detection System software from Applied Biosystems.
Primers and probes were designed using Oligo Primer Analysis Software, Version 5.0 (National Biosciences Inc. (NBI)-Wojciech Rychlik, Cascade, Colo.). Primers were synthesized by Life Technologies (Grand Island, N.Y.) and probes were synthesized by Applied Biosystems. Primer/probe sets were designed from known sequences of rat genes to be analyzed. All target gene values were normalized to a reference gene, constitutively expressed cyclophilin. Primer/probe sets sequences can be found in Table 8
RNA was extracted from frozen (−70° C.) left ventricle (LV) tissue (approximately 10-20 mg) using 1.5 mL RNA-STAT 60 according to manufacturer's instructions (Leedo Medical Laboratories, Inc., Houston, Tex.). Briefly, tissues were homogenized using a tissue homogenizer equipped with a 5 mm probe (Ultra-Turrax T8 Homogenizer, IKA Works, Inc. Wilmington, N.C.). Following homogenization, an equal volume of molecular grade chloroform (Sigma Chemical Co., St. Louis, Mo.) was incubated with periodic mixing for 10 min at room temperature. Samples were centrifuged at 12,000 g for 10 min and RNA was precipitated from the top layer by adding an equal volume of molecular grade isopropanol (Sigma Chemical Co.) followed by an overnight incubation at −80° C.

interstitial collagen = test: Assay B: myocardial fibrosis (interstitial collagen volume fraction, hydroxyproline concentration); format: in vivo, Male Sprague Dawley rats; conditions: aldosterone/salt treatment, 4 weeks
Protocol: Assay B: In Vivo Aldosterone Infusion Model Male Sprague Dawley rats (n=39; BW=250 g) […] Uni-nephrectomy performed during implantation of mini-pumps 2. Aldosterone ([…], sc via alzet minipump) 2. […] Hearts were stained with hematoxylin&eosin and the collagen specific dye picro-sirius red and were analyzed for determination of interstitial collagen volume fraction and morphologic abnormalities (i.e. necrosis, vascular injury). Hydroxyproline concentration was measured in the frozen hearts.

osteopontin [2] = test: Assay B: osteopontin mRNA in heart by quantitative RT-PCR (Taqman); format: in vivo, Male Sprague Dawley rats
Protocol: as §1

MCP-1 = test: Assay B: MCP-1 mRNA expression at 28 days; format: in vivo, Male Sprague Dawley rats; conditions: aldosterone infused rats, 28 days (FIG. 46)
Protocol: (§2) Assay B: In Vivo Aldosterone Infusion Model Male Sprague Dawley rats (n=39; BW=250 g) 2. Aldosterone (0.75 mg/hr, sc via alzet minipump) 2.

IL-6 = test: Assay B: IL-6 mRNA expression at 28 days; format: in vivo, Male Sprague Dawley rats; conditions: aldosterone infused rats, 28 days (FIG. 46)
Protocol: as §2

osteopontin [3] = test: Assay B: serum (circulating) osteopontin levels at 28 days; format: in vivo, Male Sprague Dawley rats; conditions: NaCl 1% drinking rats with aldosterone and eplerenone
Protocol: as §2

[4] = tested on: angiotensin II infused, captopril treated stroke prone spontaneously hypertensive rats; test: Urinary protein excretion in angiotensin II infused, captopril treated stroke prone spontaneously hypertensive rats; format: in vivo; conditions: captopril treated stroke prone spontaneously hypertensive rats (FIG. 35)
[5] = tested on: angiotensin II infused, captopril treated stroke prone spontaneously hypertensive rats; test: Histopathological scores for renal injury in angiotensin II infused, captopril treated stroke prone spontaneously hypertensive rats; format: in vivo; conditions: captopril treated stroke prone spontaneously hypertensive rats (FIG. 36)
[6] = tested on: angiotensin II infused rats; test: Assay A: urinary electrolyte excretion (urinary Na+/K+ ratio as index for natriuresis); format: in vivo, Male Wistar rats; conditions: 1% NaCl, eplerenone 100 mpk
Source text: 24-hours food and fluid intake and urine output measured every day Urine samples collected every day for determination of urinary electrolytes. Electrolyte excretion. The ratio between daily urinary Na^+ excretion and urinary K^+ excretion (U Na^+/K^+ ratio) was used as an index for natriuresis. Urinary Na^+/K^+ ratio was similar in all groups before the start of the treatments, and increased similarly in all animals upon initiation of the high salt diet.

[7] = tested on: stroke-prone spontaneously hypertensive rats; test: Survival and cerebral injury in stroke-prone spontaneously hypertensive rats; format: in vivo
[8] = aldosterone/salt + vehicle vs control
[9] = hearts of aldosterone/salt-treated rats, quantitative RT-PCR, eplerenone 100 mpk
[10] = mean ± SEM after 7 days of treatment, eplerenone 100 mg/kg/day
[11] = mean ± SEM after 14 days of treatment, eplerenone 100 mg/kg/day

C[C@]12CCC(=O)C=C1CC[C@@H]1[C@@H]2[C@@H](O)C[C@]2(C=O)[C@@H](C(=O)CO)CC[C@@H]12 [Aldosterone]
COX-2 mRNA expression increase (COX-2; [8]): 3 fold
COX-2 relative mRNA expression (COX-2; [9]): 3.7±0.46
ANP ([1]; 14-day protocol, mRNA, individual rats and group Mean, listed as Aldosterone + salt): 4.58 AU and 7.75 AU and 7.34 AU and 4.18 AU and 1.59 AU and 17.81 AU and 6.48 AU and 8.08 AU and 2.51 AU
ANP ([1]; 14-day protocol, mRNA, individual rats and group Mean, listed as Aldosterone + salt, mean): 6.70 AU
ANP ([1]; 30-day protocol, mRNA, individual rats and group Mean, listed as Aldosterone + salt): 23.59 AU and 43.11 AU and 14.83 AU (2×) and 18.90 AU and 23.43 AU and 15.14 AU and 6.77 AU and 20.97 AU
ANP ([1]; 30-day protocol, mRNA, individual rats and group Mean, listed as Aldosterone + salt, group mean): 20.17 AU
ANP mRNA levels ([1]; aldosterone + salt vs vehicle + salt (Tables 11-13)): Significant elevations
ANP mRNA [1, 10]: 8.72 ± 1.51 AU
ANP mRNA [1, 11]: 6.70 ± 1.59 AU
ANP mRNA (AU) [1]: 20.17 ± 3.36 AU
Myocardial fibrosis (interstitial collagen volume fraction, hydroxyproline concentration) (interstitial collagen): absence of myocardial fibrosis
Osteopontin mRNA upregulation (osteopontin [2]; [8]): 7 fold
Osteopontin relative mRNA expression (osteopontin [2]; [9]): 12.25±1.7

COC(=O)[C@@H]1CC2=CC(=O)CC[C@]2(C)[C@@]23O[C@@H]2C[C@@]2(C)[C@@H](CC[C@@]24CCC(=O)O4)[C@H]13 [Eplerenone]
MCP-1 expression (MCP-1): attenuated
IL-6 expression (IL-6): attenuated
Circulating (serum) osteopontin levels (osteopontin [3]): marked decrease
ANP ([1]; 14-day protocol, mRNA, individual rats and group Mean, listed as Eplerenone + aldosterone + salt): 2.84 AU and 3.22 AU and 6.39 AU and 4.04 AU and 25.90 AU and 5.52 AU and 3.57 AU and 2.29 AU and 8.37 AU and 4.24 AU
ANP ([1]; 14-day protocol, mRNA, individual rats and group Mean, listed as Eplerenone + aldosterone + salt, mean): 6.64 AU
ANP mRNA upregulation ([1]; after 14 days of treatment, eplerenone 100 mg/kg/day): not after 14 days
ANP mRNA upregulation ([1]; after 30 days of treatment, eplerenone 100 mg/kg/day): significantly reduced
ANP ([1]; individual rats and group mean, 7 days of treatment, mRNA relative to cyclophilin, aldosterone + salt, eplerenone 100 mg/kg/day): 1.26 AU and 1.81 AU and 0.59 AU and 2.58 AU and 4.48 AU and 4.98 AU and 3.82 AU and 3.59 AU and 0.95 AU and 3.67 AU
ANP ([1]; individual rats and group mean, 7 days of treatment, mRNA relative to cyclophilin, aldosterone + salt, eplerenone 100 mg/kg/day, group mean): 2.77 AU
ANP mRNA [1, 10]: 2.77 ± 0.49 AU
ANP mRNA [1, 11]: 6.64 ± 2.22 AU
ANP mRNA (AU) [1]: 9.20 ± 2.44 AU
Increased urinary protein excretion [4]: inhibition
Histopathological scores for renal injury [5]: reduction
Urinary Na+/K+ ratio (diuretic or natriuretic effect) [6]: did not produce a significant diuretic or natriuretic effect
Survival ([7]; stroke-prone spontaneously hypertensive rats (FIG. 37)): increased survival
Cerebral injury ([7]; stroke-prone spontaneously hypertensive rats (FIGS. 37, 38)): reduced cerebral injury; also recorded: decrease
